Experiments:
aP2 mRNA = aP2 mRNA expression in differentiated 3T3-L1 adipocytes (Light Cycler); assay type: cell-based; details: 3T3-L1, 7 days after differentiation induction, non-treatment control = 100, average ± standard error
Experimental: Differentiation Induction Medium (0.25 μM DEX, 0.5 mM MIX, 10 μg/mL Insulin/10% FBS/DMEM)
55 mL of FBS (fetal bovine serum (manufactured by GIBCO)) was added to 500 mL of DMEM (manufactured by SIGMA) so as to prepare 10% FBS/DMEM. To this 10% FBS/DMEM, 138.75 μL of 1 mM DEX (dexamethasone)/DMSO (manufactured by Nacalai Tesque, Inc.) and 555 μL of 10 mg/mL insulin/PBS (manufactured by SIGMA) were added. Incidentally, the insulin/PBS was obtained by adding 1N HCl to PBS in advance so as to make the solution acidic enough to allow insulin dissolution and then dissolving insulin. […]
Next, culture preadipocytes 3T-L1 were thawed, inoculated in a 100 mm dish and cultured until 3T3-L 1 cells reached about 80% confluence. […] 7 days after the initiation of the differentiation induction, mRNA was extracted using Sepasol(R)—RNA I super (manufactured by Nacalai Tesque, Inc.), and the mRNA expression amounts of 36B4, aP2 and adiponectin, which were indicators of an early period of adipocyte differentiation, were measured using Light Cycler™. Also, the medium 7 days after the differentiation induction was taken in an amount of 1 mL from each well, and the amount of adiponectin in the medium supernatant was measured using a mouse/rat adiponectin ELISA kit (trade name) (manufactured by Otsuka Pharmaceutical Co., Ltd.). […]

[1] = system: adiponectin secretion in 3T3-L1 cells; assay: adiponectin secretion amount of 3T3-L1 adipocytes by ELISA; assay type: cell-based; details: for Adiponectin secretion amount: 3T3-L1 medium supernatant 7 days after differentiation induction, non-treatment control 3.49 ± 0.78, average ± standard error
Experimental: Next, culture preadipocytes 3T-L1 were thawed, inoculated in a 100 mm dish and cultured until 3T3-L 1 cells reached about 80% confluence. A single dish of 3T3-L1 that had reached about 80% confluence was subcultured to a single 6-well plate and further cultured until the 3T3-L1 cells reached confluence in the 6-well plate, and then the medium was replaced with the differentiation induction medium, followed by differentiation induction. 48 hours later, the medium was replaced with the differentiation promotion medium, and thereafter, the medium was replaced with the differentiation promotion medium every two days. 7 days after the initiation of the differentiation induction, mRNA was extracted using Sepasol(R)—RNA I super (manufactured by Nacalai Tesque, Inc.), and the mRNA expression amounts of 36B4, aP2 and adiponectin, which were indicators of an early period of adipocyte differentiation, were measured using Light Cycler™. Also, the medium 7 days after the differentiation induction was taken in an amount of 1 mL from each well, and the amount of adiponectin in the medium supernatant was measured using a mouse/rat adiponectin ELISA kit (trade name) (manufactured by Otsuka Pharmaceutical Co., Ltd.). […]
Only the strips of the antibody plates necessary for the analysis were taken out. […] 100 μL of the standard solutions with respective concentrations and 100 μL of the diluted analytes were added to individual wells and measured in duplicate. Incidentally, the standard solutions always were measured for each measurement and each plate. […] After 100 μL of the substrate solution was added to each well of the antibody plate and allowed to stand still for reaction for 15 minutes at room temperature, 100 μL of the reaction stop solution was added to each well of the antibody plate, and then the absorbance at 450 nm in each well was measured with a plate reader.

CC(C)=CCC/C(C)=C/COc1ccc2ccc(=O)oc2c1 [Aurapten, aurapten]
aP2 mRNA expression amount (ratio to 36B4) (aP2 mRNA; aurapten 1 μM): 208.2 ± 23.4
aP2 mRNA expression amount (ratio to 36B4) (aP2 mRNA; aurapten 5 μM): 202.7 ± 19.3
Adiponectin secretion amount ([1]; aurapten 1 μM): 3.64 ± 0.82
Adiponectin secretion amount ([1]; aurapten 5 μM): 4.69 ± 0.16
effect on adiponectin secretion in adipocytes (in words) ([1]; compared with non-treated control medium): enhance the secretion of adiponectin

— patent US8802723B2, “Metabolic syndrome-improving agent and medicine, supplement, functional food and food additive containing the same” (ARKRAY, Inc., priority 2005, dated 2014)
